Counter-ions that a name gives are not always drawn.
What was measured:
[1] = system: bacterial strains that express KPC β-lactamases; assay: Synergy MIC / standard BLI potentiation MIC assay, strains expressing KPC β-lactamases; assay type: cell-based; details: more active for at least one KPC strain and/or better spectrum of activity than Avibactam; in the presence of a β-lactam
Method in brief: (§1)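 Broth microdilution in CAMHB per CLSI, ~10^5 CFU/mL, 18-20 h at 37° C; MIC is lowest concentration with no visible turbidity. Potentiation: β-lactam 128-0.13 μg/mL with BLI fixed at 4 μg/mL. Synergy: BLI serially diluted with β-lactam fixed. Engineered E. coli kept on 25 μg/mL tetracycline.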

[2] = system: bacterial strains that express the class D cephalosporinase OXA-15; assay: Synergy MIC / standard BLI potentiation MIC assay, strains expressing OXA-15; assay type: cell-based, E. coli; details: in the presence of a β-lactam; comparator Avibactam (comparator compound CCC)
Method in brief: as §1

SMILES | activity and/or spectrum of activity against bacterial strains that express KPC β-lactamases, compared with Avibactam [1] | activity against bacterial strains that express the class D cephalosporinase OXA-15, compared with Avibactam [2]
N[C@H]1C[C@H](Cc2nnc([C@@H]3CC[C@@H]4CN3C(=O)N4OS(=O)(=O)O)o2)C1 [Compound 751, (2S,5R)-2-(5-(((1r,3S)-3-aminocyclobutyl)methyl)-1,3,4-oxadiazol-2-yl)-7-oxo-1,6-diazabicyclo[3.2.1]octan-6-yl hydrogen sulfate] | more active than Avibactam | more active than Avibactam
O=C1N2C[C@@H](CC[C@H]2c2nnc(CNC3CNC3)o2)N1OS(=O)(=O)O [Compound 726, (2S,5R)-2-(5-((azetidin-3-ylamino)methyl)-1,3,4-oxadiazol-2-yl)-7-oxo-1,6-diazabicyclo[3.2.1]octan-6-yl hydrogen sulfate] | more active than Avibactam | more active than Avibactam
N=C(N)NC[C@H](O)c1nnc([C@@H]2CC[C@@H]3CN2C(=O)N3OS(=O)(=O)O)o1 [Compound 732, (2S,5R)-2-(5-((S)-2-guanidino-1-hydroxyethyl)-1,3,4-oxadiazol-2-yl)-7-oxo-1,6-diazabicyclo[3.2.1]octan-6-yl hydrogen sulfate] | more active than Avibactam | more active than Avibactam
NC(=O)c1nnc([C@@H]2CC[C@@H]3CN2C(=O)N3OS(=O)(=O)O)o1 [Compound 706, (2S,5R)-2-(5-carbamoyl-1,3,4-oxadiazol-2-yl)-7-oxo-1,6-diaza-bicyclo[3.2.1]octan-6-yl hydrogen sulfate] | more active than Avibactam | more active than Avibactam
N=C(N)NC[C@@H](O)c1nnc([C@@H]2CC[C@@H]3CN2C(=O)N3OS(=O)(=O)O)o1 [Compound 731, (2S,5R)-2-(5-((R)-2-guanidino-1-hydroxyethyl)-1,3,4-oxadiazol-2-yl)-7-oxo-1,6-diazabicyclo[3.2.1]octan-6-yl hydrogen sulfate] | more active than Avibactam | more active than Avibactam
N=C(N)NCc1nnc([C@@H]2CC[C@@H]3CN2C(=O)N3OS(=O)(=O)O)s1 [Compound 721, (2S,5R)-2-(5-(guanidinomethyl)-1,3,4-thiadiazol-2-yl)-7-oxo-1,6-diazabicyclo[3.2.1]octan-6-yl hydrogen sulfate] | more active than Avibactam | more active than Avibactam
NCCCc1nnc([C@@H]2CC[C@@H]3CN2C(=O)N3OS(=O)(=O)O)o1 [Compound 720, (2S,5R)-2-(5-(3-aminopropyl)-1,3,4-oxadiazol-2-yl)-7-oxo-1,6-diazabicyclo[3.2.1]octan-6-yl hydrogen sulfate] | more active than Avibactam | more active than Avibactam
O=C1N2C[C@@H](CC[C@H]2c2nnc(CN[C@@H]3CCNC3)o2)N1OS(=O)(=O)O [Compound 766, (2S,5R)-7-oxo-2-(5-(((R)-pyrrolidin-3-ylamino)methyl)-1,3,4-oxadiazol-2-yl)-1,6-diazabicyclo[3.2.1]octan-6-yl hydrogen sulfate] | more active than Avibactam | more active than Avibactam
NCCc1nnc([C@@H]2CC[C@@H]3CN2C(=O)N3OS(=O)(=O)O)o1 [Compound 703, (2S,5R)-2-(5-(2-aminoethyl)-1,3,4-oxadiazol-2-yl)-7-oxo-1,6-diazabicyclo[3.2.1]octan-6-yl hydrogen sulfate] | more active than Avibactam | more active than Avibactam
O=C1N2C[C@@H](CC[C@H]2c2nnc(C3CCNC3)o2)N1OS(=O)(=O)O (stereo partly drawn) [Compound 710, (2S,5R)-7-oxo-2-(5-(pyrrolidin-3-yl)-1,3,4-oxadiazol-2-yl)-1,6-diazabicyclo[3.2.1]octan-6-yl hydrogen sulfate] | more active than Avibactam | more active than Avibactam
O=C1N2C[C@@H](CC[C@H]2c2nnc(CC3CCNC3)o2)N1OS(=O)(=O)O (stereo partly drawn) [Compound 764, (2S,5R)-7-oxo-2-(5-(pyrrolidin-3-ylmethyl)-1,3,4-oxadiazol-2-yl)-1,6-diazabicyclo[3.2.1]octan-6-yl hydrogen sulfate] | more active than Avibactam | more active than Avibactam
O=C1N2C[C@@H](CC[C@H]2c2nnco2)N1OS(=O)(=O)O [Compound 701, (2S,5R)-2-(1,3,4-oxadiazol-2-yl)-7-oxo-1,6-diazabicyclo[3.2.1]octan-6-yl hydrogen sulfate] | more active than Avibactam | more active than Avibactam
N[C@H]1CN[C@H](c2nnc([C@@H]3CC[C@@H]4CN3C(=O)N4OS(=O)(=O)O)o2)C1 [Compound 762, (2S,5R)-2-(5-((2S,4R)-4-aminopyrrolidin-2-yl)-1,3,4-oxadiazol-2-yl)-7-oxo-1,6-diazabicyclo[3.2.1]octan-6-yl hydrogen sulfate] | more active than Avibactam | more active than Avibactam
O=C1N2C[C@@H](CC[C@H]2c2nnc([C@@H]3CCNC3)o2)N1OS(=O)(=O)O [Compound 759, (2S,5R)-7-oxo-2-(5-((R)-pyrrolidin-3-yl)-1,3,4-oxadiazol-2-yl)-1,6-diazabicyclo[3.2.1]octan-6-yl hydrogen sulfate] | more active than Avibactam | more active than Avibactam
N[C@H]1C[C@H](c2nnc([C@@H]3CC[C@@H]4CN3C(=O)N4OS(=O)(=O)O)o2)C1 [Compound 727, (2S,5R)-2-(5-((1r,3S)-3-aminocyclobutyl)-1,3,4-oxadiazol-2-yl)-7-oxo-1,6-diazabicyclo[3.2.1]octan-6-yl hydrogen sulfate] | more active than Avibactam | more active than Avibactam
N=C(N)NCCc1nnc([C@@H]2CC[C@@H]3CN2C(=O)N3OS(=O)(=O)O)o1 [Compound 705, (2S,5R)-2-(5-(2-guanidinoethyl)-1,3,4-oxadiazol-2-yl)-7-oxo-1,6-diazabicyclo[3.2.1]octan-6-yl hydrogen sulfate] | more active than Avibactam | more active than Avibactam

— patent publication US20140315876A1, “BETA-LACTAMASE INHIBITORS” (priority 2013, published 2014)
